US8367328B2, “Method for synthesizing DNA” (Takara Bio Inc., priority 1998, dated 2013)

Assays:
[1] = system: TaKaRa EX-Taq DNA Polymerase; test: LA-PCR with TaKaRa EX-Taq DNA Polymerase in the presence of acidic substances; format: biochemical; conditions: 10 kb fragment
Method: (1) The effects of the acidic substances were studied on LA-PCR method comprising a combination of DNA polymerase having 3′→5′ exonuclease activity, and DNA polymerase having no such activity. A reaction mixture comprising λDNA as a template, primers λ1 and λ8 as a primer pair was prepared, and PCR was carried out. In this PCR, TaKaRa EX-Taq DNA Polymerase (manufactured by Takara Shuzo Co., Ltd.) was used. The composition of the reaction mixture is as follows.
In the following example, PCR was carried out in Fast mode by using TaKaRa PCR Thermal Cycler Personal (manufactured by Takara Shuzo Co., Ltd.).
[…] Further, 1 ng of the sulfated-fucose-containing polysaccharide-F or 0.5 μg of sodium alginate was respectively added to the above reaction mixture.
[…] After the termination of the reaction, 5 μl of the resulting reaction mixture was subjected to electrophoresis on 1% agarose gel containing ethidium bromide in an amount of 0.00005%, whereby an amplified fragment was confirmed.
Further, PCR was carried out for a reaction having the same composition as the above reaction mixture except for using 100 pg of λDNA as template DNA, and adding 0.25 μg of sodium alginate or 1 ng of the sulfated-fucose-containing polysaccharide-F as an acidic substance.
The reaction was carried out in 29 cycles, wherein one cycle of reaction comprises a process consisting of 98° C., 5 seconds—68° C., 3 minutes. […]

[2] = target: T1, TaKaRa Taq DNA Polymerase (Thermus aquaticus, UniProt P19821); test: PCR with TaKaRa Taq DNA Polymerase in the presence of acidic substances; format: biochemical; conditions: 1 kb fragment; 100 pg λDNA, primers λ1/λ3, 30 cycles 98°C 10 s–68°C 1 min, 50 μl; amount added 1 μg
T1 construct: purchased Takara Shuzo Co., Ltd
T1 sequence (P19821 whole entry, the tested form may be a part): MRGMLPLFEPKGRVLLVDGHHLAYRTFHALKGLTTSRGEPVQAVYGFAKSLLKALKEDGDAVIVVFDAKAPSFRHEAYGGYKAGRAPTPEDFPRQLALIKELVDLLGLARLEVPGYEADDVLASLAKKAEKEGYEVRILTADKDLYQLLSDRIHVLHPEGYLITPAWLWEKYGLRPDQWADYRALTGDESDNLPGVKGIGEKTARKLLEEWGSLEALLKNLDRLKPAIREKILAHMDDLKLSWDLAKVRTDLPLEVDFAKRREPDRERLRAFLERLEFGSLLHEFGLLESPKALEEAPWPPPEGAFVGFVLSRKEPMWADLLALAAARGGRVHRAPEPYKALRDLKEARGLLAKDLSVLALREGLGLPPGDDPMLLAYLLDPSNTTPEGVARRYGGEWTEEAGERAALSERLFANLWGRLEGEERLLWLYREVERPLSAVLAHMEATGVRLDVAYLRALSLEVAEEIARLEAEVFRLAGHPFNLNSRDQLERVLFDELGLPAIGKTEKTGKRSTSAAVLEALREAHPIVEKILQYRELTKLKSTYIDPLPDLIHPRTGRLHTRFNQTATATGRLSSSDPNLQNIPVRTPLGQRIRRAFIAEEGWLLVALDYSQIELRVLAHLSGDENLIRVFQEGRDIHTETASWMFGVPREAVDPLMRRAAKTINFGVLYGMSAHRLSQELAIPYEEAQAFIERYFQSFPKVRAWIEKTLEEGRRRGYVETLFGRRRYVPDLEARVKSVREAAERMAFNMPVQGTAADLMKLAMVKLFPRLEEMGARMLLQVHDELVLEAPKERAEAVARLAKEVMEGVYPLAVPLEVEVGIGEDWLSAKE
Method: Using the sulfated-fucose-containing polysaccharide-F obtained in Example 6 described above or sodium alginate, the effects of these acidic substances imparted on TaKaRa Taq DNA Polymerase (manufactured by Takara Shuzo Co., Ltd.) were examined. In this example, PCR was carried out in normal mode by using TaKaRa PCR Thermal Cycler Personal.
A reaction mixture comprising λDNA as a template, primers λ1 and λ3 as a primer pair, and TaKaRa Taq DNA Polymerase as DNA polymerase was prepared, and PCR was carried out. The composition of the reaction mixture is as follows.
TaKaRa Taq DNA Polymerase buffer, 0.2 mM each of dATP, dCTP, dGTP and dTTP, 1.25 U of TaKaRa Taq DNA Polymerase, 100 pg of λDNA, and 10 pmol each of primers λ1 and λ3 (a final volume being 50 μl). Further, 0.1 ng or 0.25 ng each of the sulfated-fucose-containing polysaccharide-F or 1 μg of sodium alginate was respectively added to the above reaction mixture.
The reaction was carried out in 30 cycles, wherein one cycle of reaction comprises a process consisting of 98° C., 10 seconds—68° C., 1 minute. After the termination of the reaction, 5 μl of the resulting reaction mixture was subjected to electrophoresis on 1% agarose gel containing ethidium bromide in an amount of 0.00005%, whereby an amplified fragment was confirmed.

KOD DNA Polymerase = target: T2, KOD DNA Polymerase (Thermococcus kodakarensis, UniProt P77933, DEL407-766/DEL852-1388); test: PCR with KOD DNA Polymerase (α-type) in the presence of acidic substances; format: biochemical, Pyrococcus sp.; conditions: 10 kb fragment, 100 pg λDNA, 30 cycles 98°C 5 s–68°C 3 min
T2 construct: purchased TOYOBO CO., LTD
T2 sequence (P77933 other isoform, or with tags, fused parts or gaps DEL407-766/DEL852-1388): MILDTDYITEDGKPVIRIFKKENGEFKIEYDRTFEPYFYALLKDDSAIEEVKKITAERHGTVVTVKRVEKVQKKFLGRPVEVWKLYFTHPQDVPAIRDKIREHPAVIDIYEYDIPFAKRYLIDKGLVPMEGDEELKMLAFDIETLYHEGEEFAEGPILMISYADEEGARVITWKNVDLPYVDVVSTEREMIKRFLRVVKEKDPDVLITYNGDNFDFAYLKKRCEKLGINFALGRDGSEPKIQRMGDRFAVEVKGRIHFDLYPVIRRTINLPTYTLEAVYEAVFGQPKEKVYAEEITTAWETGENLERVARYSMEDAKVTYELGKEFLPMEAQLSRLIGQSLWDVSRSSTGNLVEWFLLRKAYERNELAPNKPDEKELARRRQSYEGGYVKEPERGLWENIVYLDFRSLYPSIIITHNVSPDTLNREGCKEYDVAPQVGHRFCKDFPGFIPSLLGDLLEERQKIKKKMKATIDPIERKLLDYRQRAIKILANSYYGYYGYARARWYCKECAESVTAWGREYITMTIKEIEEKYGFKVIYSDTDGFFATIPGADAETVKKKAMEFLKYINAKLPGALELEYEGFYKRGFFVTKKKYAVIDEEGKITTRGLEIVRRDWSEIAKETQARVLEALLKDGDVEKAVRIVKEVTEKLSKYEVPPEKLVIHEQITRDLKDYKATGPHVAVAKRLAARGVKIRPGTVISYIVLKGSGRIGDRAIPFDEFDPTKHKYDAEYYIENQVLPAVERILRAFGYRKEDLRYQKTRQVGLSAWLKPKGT
Method: (1) Using sodium alginate, sodium hyaluronate (manufactured by Seikagaku Kogyo), or κ carrageenan (manufactured by Sigma), the effects of these acidic substances on α-type DNA polymerase were examined. A reaction mixture comprising λDNA as a template, primers λ1 and λ8 as a primer pair, and KOD DNA Polymerase (manufactured by TOYOBO CO., LTD.) as DNA polymerase was prepared, and PCR was carried out. The composition of the reaction mixture is as follows. Composition of Reaction Mixture: KOD DNA Polymerase Buffer I (manufactured by TOYOBO CO., LTD.) 0.2 mM each of dATP, dCTP, dGTP and dTTP, 0.625 U of KOD DNA Polymerase, 100 pg of λDNA, and 5 pmol each of primers λ1 and λ8 (a final volume being 25 μl). Further, 1 μg or 2.5 μg of sodium alginate, 0.1 μg or 0.5 μg of sodium hyaluronate, or 0.1 μg or 0.25 μg of κ carrageenan was respectively added to the above reaction mixture.
The reaction in 30 cycles was carried out for each of these reaction mixtures, wherein one cycle of reaction comprises a process consisting of 98° C., 5 seconds—68° C., 3 minutes. Thereafter, 5 μl of the resulting reaction mixture was subjected to electrophoresis on 1% agarose gel containing ethidium bromide in an amount of 0.00005%, whereby an amplified fragment was confirmed.
(2) The effects on α-type DNA polymerase were also examined in the same manner as in item (1) above for sodium alginate, κ carrageenan, sodium heparan sulfate (manufactured by Sigma), sodium dermatan sulfate (manufactured by Sigma), potassium polyvinyl sulfate (manufactured by nacalaitesque) or sodium polystyrenesulfonate (two kinds: average molecular weights of 5,400 and 35,000, all manufactured by nacalaitesque). A reaction mixture comprising λDNA as a template, primers λ1 and λ8 as a primer pair, and KOD DNA Polymerase as DNA polymerase was prepared, and PCR was carried out. The composition of the reaction mixture is as follows. Composition of Reaction Mixture: KOD DNA Polymerase Buffer II (manufactured by TOYOBO CO., LTD.) 0.2 mM each of dATP, dCTP, dGTP and dTTP, 1.25 U of KOD DNA Polymerase, 100 pg of λDNA, and 10 pmol each of primers λ1 and λ8 (a final volume being 50 μl). Further, 2.5 μg or 5 μg of sodium alginate, 0.25 μg or 0.5 μg of κ carrageenan, or 125 ng, 250 ng or 375 ng of sodium dermatan sulfate, 500 ng of sodium heparan sulfate, 10 ng of potassium polyvinyl sulfate, 2.5 ng or 5 ng of sodium polystyrenesulfonate (average molecular weight: 5,400), or 5 ng of sodium polystyrenesulfonate (average molecular weight: 35,000) was respectively added to the above reaction mixture.

## sodium alginate
[1]; template DNA 10 pg, primers λ1/λ8, 27 cycles 98°C 5 s–68°C 3 min, amount added 0.5 μg
  Amplification Results: ++ (Intensive amplification being observed)
[1]; template DNA 100 pg, primers λ1/λ8, 29 cycles 98°C 5 s–68°C 3 min, amount added 0.25 μg
  Amplification Results: ++ (Intensive amplification being observed)
[2]
  Amplification Results: + (Amplification being observed)
KOD DNA Polymerase; Buffer I, 0.625 U KOD, primers λ1/λ8, 25 μl, amount added 1 μg
  Amplification Results: ++ (Intensive amplification being observed)
KOD DNA Polymerase; Buffer I, 0.625 U KOD, primers λ1/λ8, 25 μl, amount added 2.5 μg
  Amplification Results: ++ (Intensive amplification being observed)
KOD DNA Polymerase; Buffer II, 1.25 U KOD, primers λ1/λ8, 50 μl, amount added 2.5 μg
  Amplification Results: ++ (Intensive amplification being observed)
KOD DNA Polymerase; Buffer II, 1.25 U KOD, primers λ1/λ8, 50 μl, amount added 5 μg
  Amplification Results: ++ (Intensive amplification being observed)
